Experiments:
human TLR8 = biological target: T1, human TLR8 (Homo sapiens, UniProt Q9NR97); experiment: HEK293-Blue-hTLR-8 cells assay (SEAP reporter, R848 stimulation); format: cell-based; settings: HEK293-Blue-hTLR8 cells, R848 ligand, 20 hrs; read-out: HEK/hTLR8 IC50
T1 sequence (Q9NR97 27-1041): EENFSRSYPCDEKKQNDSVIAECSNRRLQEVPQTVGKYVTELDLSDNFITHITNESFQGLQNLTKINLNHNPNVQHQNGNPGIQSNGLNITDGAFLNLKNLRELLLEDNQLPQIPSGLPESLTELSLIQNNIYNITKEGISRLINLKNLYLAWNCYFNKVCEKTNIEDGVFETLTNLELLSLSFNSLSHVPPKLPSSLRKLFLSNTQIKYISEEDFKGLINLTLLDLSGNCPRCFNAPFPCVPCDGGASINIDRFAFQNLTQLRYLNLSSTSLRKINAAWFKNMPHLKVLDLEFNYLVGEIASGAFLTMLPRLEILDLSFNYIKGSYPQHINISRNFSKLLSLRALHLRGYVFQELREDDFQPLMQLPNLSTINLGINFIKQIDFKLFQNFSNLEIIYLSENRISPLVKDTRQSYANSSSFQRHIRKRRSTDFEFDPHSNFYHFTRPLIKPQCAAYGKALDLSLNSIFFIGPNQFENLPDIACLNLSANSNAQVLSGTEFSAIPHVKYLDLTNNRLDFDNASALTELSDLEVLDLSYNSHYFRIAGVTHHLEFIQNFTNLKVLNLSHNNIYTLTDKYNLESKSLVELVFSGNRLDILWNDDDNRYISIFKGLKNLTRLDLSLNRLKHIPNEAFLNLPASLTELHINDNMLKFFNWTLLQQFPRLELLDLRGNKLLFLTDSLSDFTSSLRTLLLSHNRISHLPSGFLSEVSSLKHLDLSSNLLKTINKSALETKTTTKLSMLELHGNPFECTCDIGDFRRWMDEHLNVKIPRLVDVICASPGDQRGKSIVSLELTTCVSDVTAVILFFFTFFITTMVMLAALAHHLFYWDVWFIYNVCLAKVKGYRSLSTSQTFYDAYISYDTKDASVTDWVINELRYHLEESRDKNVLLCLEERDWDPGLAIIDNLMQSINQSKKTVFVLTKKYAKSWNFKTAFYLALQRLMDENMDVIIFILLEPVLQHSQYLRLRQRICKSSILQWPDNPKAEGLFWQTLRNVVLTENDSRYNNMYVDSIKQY
Method: The following tests were carried out in order to determine the activity of the compounds of formula (I), (Ia) or (Ib) in HEK293-Blue-hTLR-7/8/9 cells assay.
HEK293-Blue-hTLR-8 Cells Assay:
A stable HEK293-Blue-hTLR-8 cell line was purchased from InvivoGen (Cat. #: hkb-htlr8, San Diego, California, USA). These cells were originally designed for studying the stimulation of human TLR8 by monitoring the activation of NF-κB. A SEAP (secreted embryonic alkaline phosphatase) reporter gene was placed under the control of the IFN-β minimal promoter fused to five NF-κB and AP-1-binding sites. The SEAP was induced by activating NF-κB and AP-1 via stimulating HEK-Blue hTLR8 cells with TLR8 ligands. Therefore the reporter expression was declined by TLR8 antagonist under the stimulation of a ligand, such as R848, for incubation of 20 hrs. The cell culture supernatant SEAP reporter activity was determined using QUANTI-Blue™ kit (Cat. #: rep-qb1, Invivogen, San Diego, Ca., USA) at a wavelength of 640 nm, a detection medium that turns purple or blue in the presence of alkaline phosphatase.
HEK293-Blue-hTLR8 cells were incubated at a density of 250,000˜450,000 cells/mL in a volume of 170 μL in a 96-well plate in Dulbecco's Modified Eagle's medium (DMEM) containing 4.5 g/L glucose, 50 U/mL penicillin, […], […], 2 mM L-glutamine, 10% (v/v) heat-inactivated fetal bovine serum with addition of 20 μL test compound in a serial dilution in the presence of final DMSO at 1% and 10 μL of 60 uM R848 in above DMEM, perform incubation under 37° C. in a CO2 incubator for 20 hrs. Then 20 μL of the supernatant from each well was incubated with 180 μL Quanti-blue substrate solution at 37° C. for 2 hrs and the absorbance was read at 620-655 nm using a spectrophotometer. The signaling pathway that TLR8 activation leads to downstream NF-κB activation has been widely accepted, and therefore similar reporter assay was modified for evaluating TLR8 antagonist.

[1] = Human microsomal stability assay; format: in vitro ADME; settings: human liver microsomes, 1 μM test compound, 0.5 mg/mL protein, 37° C.; low <7.0, medium 7.0-16.2, high 16.2-23.2
Method: Human Microsomal Stability Assay
Human liver microsomes (Cat. NO.: 452117, Corning, USA) were preincubated with test compound for 10 minutes at 37° C. in 100 mM potassium phosphate buffer, pH 7.4. The reactions were initiated by adding NADPH regenerating system. The final incubation mixtures contained 1 μM test compound, 0.5 mg/mL liver microsomal protein, 1 mM MgCl2, 1 mM NADP, 1 unit/mL isocitric dehydrogenase and 6 mM isocitric acid in 100 mM potassium phosphate buffer, pH 7.4. After incubation times of 0, 3, 6, 9, 15 and 30 minutes at 37° C., 300 μL of cold ACN (including internal standard) was added to 100 μL incubation mixture to terminate the reaction. Following precipitation and centrifugation, 100 uL supernatant will be taken out and added 300 uL water. The amount of compound remaining in the samples was determined by LC-MS/MS. Controls of no NADPH regenerating system at zero and 30 minutes were also prepared and analyzed. The results were categorized as: low (<7.0 mL/min/kg), medium (7.0-16.2 mL/min/kg) and high (16.2-23.2 mL/min/kg).

IC50 (human TLR8) [nM] | CL (h) [1] [L/h/kg] | SMILES
8.6 | 0.594 | C[C@@H]1CN(c2ccc(C#N)c3ncccc23)C[C@@H]2CCN(Cc3cnc(N4CCNCC4)cn3)CCN21 [Example 15, 5-[(4R,10aS)-4-methyl-8-[(5-piperazin-1-ylpyrazin-2-yl)methyl]-1,3,4,6,7,9,10,10a-octahydropyrazino[1,2-d][1,4]diazepin-2-yl]quinoline-8-carbonitrile]
7.9 | 0.564 | CO[C@@H]1CN(c2cnc(CN3CC[C@H]4CN(c5ccc(C#N)c6ncccc56)C[C@@H](C)N4CC3)c(F)c2)C[C@H]1N [Example 24, 5-[(4R,10aS)-8-[[5-[(3R,4R)-3-amino-4-methoxy-pyrrolidin-1-yl]-3-fluoro-2-pyridyl]methyl]-4-methyl-1,3,4,6,7,9,10,10a-octahydropyrazino[1,2-d][1,4]diazepin-2-yl]quinoline-8-carbonitrile]
8.3 | 0.528 | C[C@@H]1CN(c2ccc(C#N)c3ncccc23)C[C@@H]2CCN(Cc3ncc(N4CCNCC4)cc3F)CCN21 [Example 23, 5-[(4R,10aS)-8-[(3-fluoro-5-piperazin-1-yl-2-pyridyl)methyl]-4-methyl-1,3,4,6,7,9,10,10a-octahydropyrazino[1,2-d][1,4]diazepin-2-yl]quinoline-8-carbonitrile]
51.1 | 0.39 | C[C@@H]1CN(c2cc(=O)n(C)c3ncccc23)C[C@@H]2CCN(Cc3ccc4c(c3)CNCC4)CCN21 [Example 28, 4-[(4R,10aS)-4-methyl-8-(1,2,3,4-tetrahydroisoquinolin-7-ylmethyl)-1,3,4,6,7,9,10,10a-octahydropyrazino[1,2-d][1,4]diazepin-2-yl]-1-methyl-1,8-naphthyridin-2-one]
4.9 | 0.588 | C[C@@H]1CN(c2ccc(C#N)c3ncccc23)C[C@@H]2CCN(Cc3cnc(N4CCNCC4)nc3)CCN21 [Example 14, 5-[(4R,10aS)-4-methyl-8-[(2-piperazin-1-ylpyrimidin-5-yl)methyl]-1,3,4,6,7,9,10,10a-octahydropyrazino[1,2-d][1,4]diazepin-2-yl]quinoline-8-carbonitrile]
3.4 | 0.552 | C[C@@H]1CN(c2ccc(C#N)c3ncccc23)C[C@@H]2CCN(Cc3ccc(N4CCNCC4)nc3)CCN21 [Example 17, 5-[(4R,10aS)-4-methyl-8-[(6-piperazin-1-yl-3-pyridyl)methyl]-1,3,4,6,7,9,10,10a-octahydropyrazino[1,2-d][1,4]diazepin-2-yl]quinoline-8-carbonitrile]
1.5 | – | C[C@@H]1CN(c2ccc(C#N)c3ncccc23)C[C@@H]2CCN(c3cc4c(cn3)CNCC4)CCN21 [Example 7, 5-[(4R,10aS)-4-methyl-8-(5,6,7,8-tetrahydro-2,7-naphthyridin-3-yl)-1,3,4,6,7,9,10,10a-octahydropyrazino[1,2-d][1,4]diazepin-2-yl]quinoline-8-carbonitrile]
86.9 | 0.51 | C[C@@H]1CN(c2ccc(C#N)c3ncccc23)C[C@@H]2CCN(Cc3ccc(N4CCOC[C@H](N)C4)cn3)CCN21 [Example 21, 5-[(4R,10aS)-8-[[5-[(6R)-6-amino-1,4-oxazepan-4-yl]-2-pyridyl]methyl]-4-methyl-1,3,4,6,7,9,10,10a-octahydropyrazino[1,2-d][1,4]diazepin-2-yl]quinoline-8-carbonitrile]
4.2 | 0.492 | C[C@@H]1CN(c2ccc(C#N)c3ncccc23)C[C@@H]2CCN(Cc3ccc4c(c3)CCNC4)CCN21 [Example 11, 5-[(4R,10aS)-4-methyl-8-(1,2,3,4-tetrahydroisoquinolin-6-ylmethyl)-1,3,4,6,7,9,10,10a-octahydropyrazino[1,2-d][1,4]diazepin-2-yl]quinoline-8-carbonitrile]
